According to US9084799B2, “Inhaled combination therapy” (Pulmagen Therapeutics (Synergy) Limited, priority 2005, dated 2015):
Read-outs that look alike come from different tables or passages of the source.

Legend:
[1] = system: TS induced BAL inflammation; test: Tobacco smoke (TS) induced BAL inflammation, 11 daily exposures, BAL cell counts; assay type: in vivo, A/J mice; settings: for % Inhibition, BAL Total cells / % Inhibition, BAL lymphocytes / % Inhibition, BAL macrophages / % Inhibition, BAL neutrophils: 24 hrs following 11 daily TS exposures
Excerpt: Female inbred A/J mice (body weights on initial day of use: ˜20 g) were obtained from Harlan, full barrier bred and certified free from specified micro-organisms on receipt. The mice were housed, up to 5 per cage, in individually ventilated, polycarbonate solid bottomed cages (IVC) with grade 8 aspen chip bedding. Environment (airflow, temperature and humidity) within the cages was controlled by the IVC system (Techniplast). Food (RM 1, Special Diet Services) and water were provided ad libitum. Individual animals were identified by unique coloured “pentel” markings on their tails, weighed and randomly assigned to treatment groups.
In this exposure protocol, mice were exposed in groups of 5 in individual clear polycarbonate chambers (27 cm×16 cm×12 cm). The TS from the cigarettes was allowed to enter the exposure chambers at a flow rate of 100 ml/min. In order to minimise any potential problems caused by repeated exposure to a high level of TS (6 cigarettes), the exposure of the mice to TS was increased gradually over the exposure period to a maximum of 6 cigarettes. The exposure schedule used in this study was as follows:
A further group of mice were exposed to air on a daily basis for equivalent lengths of time as controls (no TS exposure).
The trachea was cannulated using a Portex nylon intravenous cannula (pink luer fitting) shortened to approximately 8 mm. Phosphate buffered saline (PBS) containing heparin (10 units/ml) was used as the lavage fluid. A volume of 0.4 ml was gently instilled and withdrawn 3 times using a 1 ml syringe and then placed in an Eppendorf tube and kept on ice prior to subsequent determinations.
Lavage fluid was separated from cells by centrifugation and the supernatant decanted and frozen for subsequent analysis. The cell pellet was re-suspended in a known volume of PBS and total cell numbers calculated by counting a stained (Turks stain) aliquot under a microscope using a haemocytometer.
The residual cell pellet was diluted to approximately 10^5 cells per ml. A volume of 500 μl was placed in the funnel of a cytospin slide and centrifuged for 8 min at 800 rpm. The slide was air dried and stained using ‘Kwik-Diff’ solutions (Shandon) as per the proprietary instructions. When dried and cover-slipped, differential cells were counted using light microscopy. Up to 400 cells were counted by unbiased operator using light microscopy. Cells were differentiated using standard morphometric techniques.
Since tests for normality were positive the data was subjected to a one way analysis of variance test (ANOVA), followed by a Bonferroni correction for multiple comparisons in order to test for significance between treatment groups. A “p” value of <0.05 was considered to be statistically significant. Percentage inhibitions were automatically calculated within the Excel spreadsheets for the cell data using the formula below: […]

[2] = system: key inflammatory cells in COPD; settings: 500 mcg inhaled twice daily, 3 months, COPD patients; Hattatowa et al. 2002; cited from earlier work
[3] = Single inhaled exposure, dose 187.5 mg; asthma patients; Bohadana et al. (1980); cited from earlier work
[4] = intra-nasal 0.1 mg/kg theophylline/0.1 mg/kg dexamethasone versus oral 1 mg/kg theophylline/0.3 mg/kg dexamethasone
Protocol: (§1) The mice were terminally anaesthetised and blood collected by cardiac puncture into syringes containing 20 U lithium Heparin in 5 ul. The collected blood was mixed and decanted into eppendorf tubes before centrifugation in a microfuge. Plasma was collected and stored at −80° C. prior to analysis by an HPLC/MS/MS method. The equipment used in the measurement of plasma levels were a Micromann Quatro Micro Mass Spectrometer (Micromass UK Limited) and a Waters 2795 Alliance HT liquid chromatograph (Waters USA).
(§2) Samples were prepared for analysis by adding 200 μl of acetonitrile (containing 0.25 mg/l dextrorphan as an internal standard) to 50 μl of each thawed sample and standard and mixed vigorously. Each sample and standard was then centrifuged at 10000 g for 2 minutes and the supernatant removed for LC-MS/MS analysis.
(§3) Positive ions for parent compound and a specific fragment product were monitored in a Multiple Reaction Monitoring mode using a Micromass Quatro Micro Mass Spectrometer with Micromass MassLynx software version 4.0. A 25 μl aliquot of each sample and standard was injected onto the liquid chromatography system. Lowest order of quantification (LOQ) was determined as 0.016 mg/L with the detection limit being 0.003 mg/L.

[5] = cited from earlier work
[6] = in vivo; settings: A/J, mouse, 1 hour post dosing
Protocol: as §1, §2, §3

[7] = cited from earlier work; remark: listed apart in the source
[8] = system: mouse model of asthma; settings: 350 mcg/kg intra-nasally; Shen et al. 2002; cited from earlier work
[9] = Intra-nasal dosing, Dexamethasone 0.1 mg/kg
[10] = Oral dosing, Dexamethasone 0.3 mg/kg
[11] = Intra-nasal dosing, Theophylline 0.5 mg/kg
[12] = Oral dosing, Theophylline 3 mg/kg
[13] = monotherapy, oral or intra-nasal

With C[C@@H]1C[C@H]2[C@@H]3CCC4=CC(=O)C=C[C@]4(C)[C@@]3(F)[C@@H](O)C[C@]2(C)[C@@]1(O)C(=O)CO [Dexamethasone] the “% Inhibition, BAL Total cells” value [1, 9] was 13%, the “% Inhibition, BAL lymphocytes” value [1, 9] was 14% and the “% Inhibition, BAL macrophages” value [1, 9] was 10%. For the same molecule, the “% Inhibition, BAL neutrophils” value [1, 9] was 16%, the “% Inhibition, BAL Total cells” value [1, 10] was −16% and the “% Inhibition, BAL lymphocytes” value [1, 10] was −7%. For the same molecule, the “% Inhibition, BAL macrophages” value [1, 10] was −14% and the “% Inhibition, BAL neutrophils” value [1, 10] was −46%.

In the case of “(6(,11(,16(,17( )-6,9-difluoro-11-hydroxy-16-methyl-3-oxo-17-(1-oxopropoxy)androsta-1,4-diene-17-carbothioic acid S-(fluoromethyl) ester [Fluticasone]”, the “reductions in key inflammatory cells in bronchial biopsies” value [2] is given as “did not detect significant reductions”.

In the case of Cn1c(=O)c2[nH]cnc2n(C)c1=O.NCCN [Aminophylline, theophylline ethylenediamine], the “Net peak theophylline plasma level” value [3] is given as 0.91 mg/L.

In the case of Cn1c(=O)c2[nH]cnc2n(C)c1=O [Theophylline, 3,7-dihydro-1,3-dimethyl-1H-purine-2,6-dione], the “% Inhibition, BAL Total cells” value [1, 11] is reported as 16%, the “% Inhibition, BAL lymphocytes” value [1, 11] is reported as 14% and the “% Inhibition, BAL macrophages” value [1, 11] is reported as 3%. For the same molecule, the “% Inhibition, BAL neutrophils” value [1, 11] was 25%, the “% Inhibition, BAL Total cells” value [1, 12] was −11% and the “% Inhibition, BAL lymphocytes” value [1, 12] was 1%. The “% Inhibition, BAL macrophages” value [1, 12] was −4%, the “% Inhibition, BAL neutrophils” value [1, 12] was −10% and the “inhibition of total number of cells recovered in the BAL induced by TS exposure” value [1, 13] was “Neither theophylline nor dexamethasone monotherapy when given orally or by the intra-nasal route significantly inhibited”. For the same molecule, the “inhibitory effect on specific cell types in BAL (macrophages, neutrophils, lymphocytes)” value [1, 13] was “No statistically significant inhibitory effect”, the “systemic theophylline levels, times lower intra-nasal vs oral” value [4] was roughly 17 times and the “plasma concentration of theophylline, median value” ([5]; 250 or 375 mg theophylline twice daily with 400 mcg budesonide, asthma patients, Evans et al.) was 8700 ng/mL. For the same molecule, the “Average theophylline plasma level” value ([5]; Daily dose 400 mg oral, 4 weeks, Alexander et al. (1980)) was 15.1 mg/L, the “Average theophylline plasma level” value ([5]; Daily dose 600 mg oral, 4 weeks, Iversen et al. (1992)) was 7.1 mg/L and the “Average theophylline plasma level” value ([5]; Daily dose 300-600 mg oral, 4 weeks, Culpitt et al. (2002)) was 9.5 mg/L. For the same molecule, the “theophylline plasma level in 20/25 patients (average not quoted)” value ([5]; Phyllocontin or Uniphylline, daily dose 562-573 mg oral, 4 weeks, U.S. Pat. No. 6,025,360) was “had levels ≧5 mg/L”, the concentration at 1 h ([6]; mean theophylline plasma level, Intra-nasal 0.1 mg/kg theophylline in combination with 0.1 mg/kg Dexamethasone, TS exposed mice) was 22 ± 9 ng/mL and the concentration at 1 h ([6]; mean theophylline plasma level, Intra-nasal 0.25 mg/kg theophylline in combination with 0.1 mg/kg Dexamethasone, TS exposed mice) was 45 ± 10 ng/mL. For the same molecule, the concentration at 1 h ([6]; mean theophylline plasma level, Intra-nasal 0.5 mg/kg theophylline in combination with 0.1 mg/kg Dexamethasone, TS exposed mice) was 74 ± 13 ng/mL, the concentration at 1 h ([6]; mean theophylline plasma level, Oral 1 mg/kg theophylline in combination with 0.3 mg/kg Dexamethasone, TS exposed mice) was 479 ± 47 ng/mL and the concentration at 1 h ([6]; mean theophylline plasma level, Oral 3 mg/kg theophylline in combination with 0.3 mg/kg Dexamethasone, TS exposed mice) was 1370 ± 192 ng/mL. For the same molecule, the concentration at 1 h ([6]; systemic theophylline exposure (plasma level), intra-nasal administration at the doses used (0.1-0.5 mg/kg)) was less than 100 ng/mL, the mean plasma half-life ([7]; adults) was “about 8 hours” and the “bioavailability from the gastrointestinal tract” value ([7]; oral absorption) was 90-100%. The mean plasma half-life ([7]; premature neonates) was “approximately 30 hours”, the “time to peak levels following ingestion” value ([7]; slowed by the presence of food) was 1 to 2 h and the mean plasma half-life ([7]; up to the age of 20) was “approximately 3.5 hours”. For the same molecule, the mean plasma half-life ([7]; up to the first year of life) was 5 h and the mean plasma half-life ([7]; within the first 6 months) was 12 h.

In the case of “(+)-[(RS)-16a,17a-Butylidenedioxy-11b, 21-dihydroxy-1,4-pregnadiene-3,20-dione] [Budesonide]”, the “efficacy in mouse model of asthma” value [8] is given as “efficacious”.
